Measurements: the Biogen ADME set (Fang et al. 2023)
In brackets after ≈: the same amount, converted by molar mass.

Conditions: for aqueous solubility: pH 6.8

| SMILES | MDR1-MDCK efflux ratio | intrinsic clearance, human liver microsomes | intrinsic clearance, rat liver microsomes | aqueous solubility |
| --- | --- | --- | --- | --- |
| CCc1noc(-c2ccc(C)c(N)c2)n1 |  | 209 mL/min/kg | 196 mL/min/kg |  |
| CCCCN(CC)c1nc(C)nc2c1c(C)c(C)n2-c1c(C)cc(C)cc1C |  | 198 mL/min/kg | 1380 mL/min/kg |  |
| COc1cc(OC)cc(N(CCNC(C)C)c2ccc3ncc(-c4cnn(C)c4)nc3c2)c1 | 106 | 17.6 mL/min/kg | 790 mL/min/kg |  |
| O=C(CN1C(=O)CCC1=O)Nc1ccc(F)c(F)c1F |  |  |  | 50 µg/mL (≈ 175 µM) |
| Cc1nnc(NC(=O)c2nn(-c3ccc(F)cc3)c3c2CCCC3)s1 |  | 42 mL/min/kg | 227 mL/min/kg | 2.9 µg/mL (≈ 8.11 µM) |
| C[C@@H](c1ccc2ccc(O[C@H]3CC[C@@H](C(F)(F)F)CC3)c(C(F)(F)F)c2c1)N1C2CCC1CC(C(=O)O)C2 (some centres not stated) | 51.8 | 7.58 mL/min/kg | 35.6 mL/min/kg | 73.2 µg/mL (≈ 135 µM) |
| Cc1cc(F)ccc1NC(=O)Cn1cncn1 |  | ≤ 4.74 mL/min/kg | ≤ 10.7 mL/min/kg | 35.1 µg/mL (≈ 150 µM) |
| CO[C@@H]1CC[C@@H](N(C)C(=O)COc2c(C)cccc2C)[C@H]1O | 1.67 | 12.1 mL/min/kg | 162 mL/min/kg |  |
| Cc1occc1C(=O)NCC(=O)Nc1nc2cc(Cl)ccc2n1C | 1.31 | 9.49 mL/min/kg | 195 mL/min/kg | 27.2 µg/mL (≈ 78.4 µM) |
| CCOc1ncccc1-c1nc(C)cc(NC)n1 | 0.672 | ≤ 4.74 mL/min/kg | 26.1 mL/min/kg | 36.4 µg/mL (≈ 149 µM) |
| Cc1cc(Br)cn(Cc2ccc(C#N)cc2F)c1=O | 0.644 | ≤ 4.74 mL/min/kg | 102 mL/min/kg |  |
| CNC(=O)c1ccc(/C=C/c2nc3cc(Cl)ccc3o2)cc1 | 0.598 |  |  | 0.76 µg/mL (≈ 2.43 µM) |
| CCc1nnc2c3ccccc3nc(Nc3ccc(OC)cc3)n12 | 0.092 |  |  | 0.14 µg/mL (≈ 0.438 µM) |
| Fc1cc(-c2noc(C3CCN(C4CC4)CC3)n2)cc(F)c1F |  | 75 mL/min/kg | 591 mL/min/kg |  |
| O=C(NCc1cc(F)cc(F)c1)c1ccccn1 | 0.719 | ≤ 4.74 mL/min/kg | 51.6 mL/min/kg | 43.4 µg/mL (≈ 175 µM) |

Other lines, results leading:

| MDR1-MDCK efflux ratio | intrinsic clearance, human liver microsomes | intrinsic clearance, rat liver microsomes | aqueous solubility | SMILES |
| --- | --- | --- | --- | --- |
| 0.802 | 206 mL/min/kg | 2510 mL/min/kg | 41 µg/mL (≈ 134 µM) | c1ccc(CCn2cnc3c2CCN(c2ncccn2)C3)cc1 |
|  |  |  | 22.8 µg/mL (≈ 82.1 µM) | N#Cc1nncn1CC(=O)Nc1ccc2ccccc2c1 |
| 9.92 | 337 mL/min/kg | 1800 mL/min/kg | 43.7 µg/mL (≈ 104 µM) | CCN(CC)S(=O)(=O)c1ccc2c(c1)CCN2CC(=O)NCc1ccccc1F |
| 0.727 | ≤ 4.74 mL/min/kg | 70.4 mL/min/kg |  | Cc1ccc(-n2nc(NCc3cnn(C)c3)cc2C)cc1 |
| 0.707 | 14.3 mL/min/kg | 400 mL/min/kg |  | CS(=O)(=O)NCCN1CCc2c(Cl)cc(Cl)cc2C1 |
| 1.32 | 9.83 mL/min/kg | 32.7 mL/min/kg |  | CCN(CCOC)C(=O)Nc1ccc2occc(=O)c2c1 |
| 0.643 | 19.9 mL/min/kg | 483 mL/min/kg |  | Cc1ncn(Cc2noc(-c3ccccc3O)n2)c1C |
|  |  |  | 3 µg/mL (≈ 15 µM) | N#Cc1cc(-c2ccccc2)sc1N |
| 26.9 | 205 mL/min/kg | 867 mL/min/kg |  | O=C([C@@H]1CCCN1C(=O)NC(c1ccccc1)c1ccccc1)N1CCCCC1 |
| 8.33 | ≤ 4.74 mL/min/kg | 31.7 mL/min/kg | 59.7 µg/mL (≈ 161 µM) | Cn1c(C(=O)N2CCN(CCc3ccccc3)C(=O)C2)cc(=O)n(C)c1=O |
|  |  |  | 26 µg/mL (≈ 95.1 µM) | COc1cc(CC(=O)Nc2ccccc2F)ccc1C |
